In ChEMBL document CHEMBL1124105, “Analogues of gamma-hydroxybutyric acid. Synthesis and binding studies” (J Med Chem, 1988) one finds inhibition data, which are given here for 27 compounds.

In experiment [1] the target is T1, Gamma-hydroxybutyrate receptor (Rattus norvegicus) (UniProt Q6RY99).
T1 sequence (whole entry): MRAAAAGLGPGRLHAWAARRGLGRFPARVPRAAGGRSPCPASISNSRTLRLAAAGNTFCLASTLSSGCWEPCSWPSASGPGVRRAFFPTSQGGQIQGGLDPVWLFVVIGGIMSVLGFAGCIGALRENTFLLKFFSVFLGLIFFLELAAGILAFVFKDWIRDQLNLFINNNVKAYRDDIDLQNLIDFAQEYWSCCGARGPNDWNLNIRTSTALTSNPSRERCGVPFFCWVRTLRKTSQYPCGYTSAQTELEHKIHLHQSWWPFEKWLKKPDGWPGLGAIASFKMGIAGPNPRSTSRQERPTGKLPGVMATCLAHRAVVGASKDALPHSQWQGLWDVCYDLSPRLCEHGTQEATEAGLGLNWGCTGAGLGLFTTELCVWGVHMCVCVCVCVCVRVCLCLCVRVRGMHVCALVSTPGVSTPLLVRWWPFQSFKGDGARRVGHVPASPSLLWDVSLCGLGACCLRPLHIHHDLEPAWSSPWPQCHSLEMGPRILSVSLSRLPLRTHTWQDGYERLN
Particulars: at 10 µM.

Experiment [2] addresses T1, Gamma-hydroxybutyrate receptor (Rattus norvegicus). Particulars: at 1 µM.
The target is the same in experiment [3]. The following applies: at 10 µM. The source holds these as a separate data set.

Each structure is given as a SMILES string. The source made the active and inactive calls. The calls are words filed in the database; no cut-off is given here.

One may read the inhibition as the share of the control response that was lost under treatment. In the case of `O=S(=O)([O-])CCO.[Na+]`, the inhibition result in experiment [1] was “inactive”.

As to `CC(O)CCC(=O)O` (configuration not stated), the inhibition in experiment [2] was found to be 12%; in experiment [3], 63%.

In the case of `O=C(O)/C=C/C(O)C1CCCCC1` (configuration not stated), the figures for the inhibition in experiment [2] and in experiment [3] were 13% and 46%, respectively.

In the case of `OCCCCO`, the inhibition entry in experiment [1] is “inactive”.

Compound `CCC(CO)CC(=O)O` (configuration not stated) had an inhibition in experiment [3] of 43%.

Take `O=C(O)CC(CO)c1ccccc1` (configuration not stated): in experiment [1], the inhibition entry was “inactive”.

On to `O=C(O)/C=C/CO`, for which the inhibition worked out at 44% in experiment [2] and 64% in experiment [3].

As for `O=C(O)CCCO`, the inhibition in experiment [2] is 35%; in experiment [3], 55%.

Turning to `CC(CO)CC(=O)O` (configuration not stated), the inhibition in experiment [3] was 59%.

As to `O=C(O)CC(CO)Cc1ccccc1` (configuration not stated), in experiment [1], the inhibition result is “inactive”.

In the case of `O=C(O)/C=C(/CO)c1ccccc1`, the inhibition in experiment [2] was 21%; in experiment [3], 34%.

As to `CCCC(CO)CC(=O)O` (configuration not stated), in experiment [3], the inhibition is 5%.

Consider `O=C(O)CCCCO`, for which the inhibition stood at 22% in experiment [2] and 53% in experiment [3].

As to `NCCCC(=O)O`, in experiment [1], the inhibition result was “inactive”.

As to `O=C1C=CCO1`, the inhibition entry in experiment [1] is “inactive”.

On to `O=S(=O)(O)CCCCO`, for which, in experiment [1], the inhibition result was “inactive”.

Regarding `CC(CO)C(C)C(=O)O` (configuration not stated), the inhibition result in experiment [1] was “inactive”.

For `O=C(O)/C=C/C(O)c1ccccc1` (configuration not stated), the inhibition was 39% in experiment [2] and 70% in experiment [3].

On to `O=C(O)C(CCO)c1ccccc1` (configuration not stated), for which the inhibition result in experiment [1] is “inactive”.

In the case of `O=C1CCCO1`, in experiment [1], the inhibition entry is “inactive”.

Regarding `C=C(C)[C@@H]1[C@H]2OC(=O)[C@@H]1[C@]1(O)C[C@H]3OC34C(=O)O[C@H]2[C@@]41C.CC(C)(O)[C@@H]1[C@H]2OC(=O)[C@@H]1[C@]1(O)C[C@H]3OC34C(=O)O[C@H]2[C@@]41C` (some centres not stated), the inhibition result in experiment [1] was “inactive”.

Take `C/C(=C\C(=O)O)CO`: the results for the inhibition in experiment [2] and in experiment [3] were 11% and 55%, respectively. Also, in experiment [1], the inhibition entry is “inactive”.

As for `O=C(O)CCC(O)c1ccccc1` (configuration not stated), the figures for the inhibition in experiment [2] and in experiment [3] were 13% and 56%, respectively.

In experiment [3], `CC(CCO)C(=O)O` (configuration not stated) yielded an inhibition of 24%.

`CC(C)C(CO)CC(=O)O` (configuration not stated): in experiment [1], the inhibition entry was “inactive”.

Consider `O=C(O)CCO`, for which the inhibition result in experiment [1] is “inactive”.

Consider `O=S(=O)(O)CCCO`, for which the inhibition result in experiment [1] is “inactive”.
